According to ChEMBL document CHEMBL1909046, “DrugMatrix in vitro pharmacology data”:

Columns and labels:
Substance-P receptor = Substance-P receptor (Homo sapiens, UniProt P25103); format: cell membranes, Membrane; conditions: cho; note: in other assays of this panel Not Active means under 50% inhibition at 10 µM
[1] = DRUGMATRIX: Nicotinic Acetylcholine radioligand binding (ligand: [125I] Epibatidine); format: cell membranes, Membrane; conditions: imr-32; Not Active = under 50% inhibition at 10 µM
Calcitonin receptor = target: T1, Calcitonin receptor (Homo sapiens, UniProt P30988); format: cell membranes, Membrane; conditions: t47d; note: in other assays of this panel Not Active means under 50% inhibition at 10 µM
T1 sequence (P30988 whole entry): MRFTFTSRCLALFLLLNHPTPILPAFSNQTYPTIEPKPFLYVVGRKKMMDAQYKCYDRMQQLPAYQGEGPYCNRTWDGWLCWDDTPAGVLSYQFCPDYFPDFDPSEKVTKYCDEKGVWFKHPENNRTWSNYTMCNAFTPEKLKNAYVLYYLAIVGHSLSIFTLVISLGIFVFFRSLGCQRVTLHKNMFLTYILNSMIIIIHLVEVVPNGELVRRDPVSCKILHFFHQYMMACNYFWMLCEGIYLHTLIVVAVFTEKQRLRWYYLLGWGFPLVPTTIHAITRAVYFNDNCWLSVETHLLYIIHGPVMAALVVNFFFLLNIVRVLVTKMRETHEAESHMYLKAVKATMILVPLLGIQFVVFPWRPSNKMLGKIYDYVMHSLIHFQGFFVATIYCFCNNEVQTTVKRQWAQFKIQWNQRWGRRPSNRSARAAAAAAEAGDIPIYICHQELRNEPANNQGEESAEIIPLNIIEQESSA

[2] = DRUGMATRIX: Phorbol Ester radioligand binding (ligand: [3H] PDBu); format: cell membranes, Mus musculus, ICR, Brain, Membrane; conditions: Not Active = under 50% inhibition at 10 µM
[3] = target: T2, Amine oxidase [flavin-containing] A (Homo sapiens, UniProt P21397); test: DRUGMATRIX: Monoamine Oxidase MAO-A enzyme inhibition (substrate: Kynuramine); design: species or system BTI-TN-5B1-4; conditions: bti-tn-5b1-4; Not Active = under 50% inhibition at 10 µM
T2 sequence (P21397 whole entry): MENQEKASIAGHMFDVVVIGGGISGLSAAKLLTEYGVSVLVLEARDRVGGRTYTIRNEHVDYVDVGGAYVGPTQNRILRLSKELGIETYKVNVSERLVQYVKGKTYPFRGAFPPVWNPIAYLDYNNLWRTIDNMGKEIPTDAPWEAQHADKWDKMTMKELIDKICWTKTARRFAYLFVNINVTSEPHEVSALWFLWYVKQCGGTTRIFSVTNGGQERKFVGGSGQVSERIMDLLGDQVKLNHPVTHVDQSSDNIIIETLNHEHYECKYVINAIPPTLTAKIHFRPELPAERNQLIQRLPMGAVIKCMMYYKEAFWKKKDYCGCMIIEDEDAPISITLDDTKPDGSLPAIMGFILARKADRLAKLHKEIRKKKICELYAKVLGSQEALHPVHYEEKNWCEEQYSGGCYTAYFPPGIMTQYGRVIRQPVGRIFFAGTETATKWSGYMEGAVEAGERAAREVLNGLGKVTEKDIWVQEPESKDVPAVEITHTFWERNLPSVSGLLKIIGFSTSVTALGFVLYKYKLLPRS

[4] = DRUGMATRIX: Atrial Natriuretic Factor (ANF) radioligand binding (ligand: [125I] ANF (rat)); format: cell membranes, Cavia porcellus, Dunkin-Hartley, Adrenal gland, Membrane; conditions: Not Active = under 50% inhibition at 10 µM
[5] = target: T3, Type-2 angiotensin II receptor (Homo sapiens, UniProt P50052); format: cell-based; conditions: cho-k1; note: in other assays of this panel Not Active means under 50% inhibition at 10 µM
T3 sequence (P50052 whole entry): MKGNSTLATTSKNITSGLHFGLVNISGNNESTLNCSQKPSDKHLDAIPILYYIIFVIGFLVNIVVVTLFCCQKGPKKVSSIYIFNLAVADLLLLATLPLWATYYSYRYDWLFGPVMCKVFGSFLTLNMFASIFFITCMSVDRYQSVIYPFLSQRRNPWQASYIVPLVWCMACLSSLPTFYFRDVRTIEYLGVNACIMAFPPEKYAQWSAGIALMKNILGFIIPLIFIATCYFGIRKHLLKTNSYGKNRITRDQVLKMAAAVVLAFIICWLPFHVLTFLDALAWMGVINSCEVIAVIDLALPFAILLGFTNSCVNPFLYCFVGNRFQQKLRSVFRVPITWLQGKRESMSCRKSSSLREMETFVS

[6] = target: T4, C-X-C chemokine receptor type 2 (Homo sapiens, UniProt P25025); format: cell membranes, Membrane; conditions: cho-k1; note: in other assays of this panel Not Active means under 50% inhibition at 10 µM
T4 sequence (P25025 whole entry): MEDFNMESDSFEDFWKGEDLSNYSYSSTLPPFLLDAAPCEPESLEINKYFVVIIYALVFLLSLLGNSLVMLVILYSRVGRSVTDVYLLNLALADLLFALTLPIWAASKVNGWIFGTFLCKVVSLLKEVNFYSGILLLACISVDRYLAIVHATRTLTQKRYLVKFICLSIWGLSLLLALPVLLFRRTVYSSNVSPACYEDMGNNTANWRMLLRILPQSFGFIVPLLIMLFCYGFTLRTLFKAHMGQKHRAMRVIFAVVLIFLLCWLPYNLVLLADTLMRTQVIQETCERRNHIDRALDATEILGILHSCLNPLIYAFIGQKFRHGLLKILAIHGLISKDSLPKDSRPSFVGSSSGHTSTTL

Substance-P receptor, sequence (P25103 whole entry): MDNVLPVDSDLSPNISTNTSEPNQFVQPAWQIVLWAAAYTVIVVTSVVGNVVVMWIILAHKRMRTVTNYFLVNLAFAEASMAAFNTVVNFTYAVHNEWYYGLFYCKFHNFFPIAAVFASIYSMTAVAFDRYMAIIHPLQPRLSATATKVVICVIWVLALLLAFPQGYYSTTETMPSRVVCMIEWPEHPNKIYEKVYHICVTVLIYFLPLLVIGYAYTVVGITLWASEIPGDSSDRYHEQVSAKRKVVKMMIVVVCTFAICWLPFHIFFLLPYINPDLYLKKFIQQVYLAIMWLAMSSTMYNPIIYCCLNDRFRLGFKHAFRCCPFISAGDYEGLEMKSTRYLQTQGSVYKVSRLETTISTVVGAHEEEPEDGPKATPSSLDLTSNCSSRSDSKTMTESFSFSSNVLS

CC(C)(CO)C(O)C(=O)NCCCO (stereo not drawn) [PANTHENOL]
Not Active: IC50 (Substance-P receptor) | IC50 [1] | Ki [1] | IC50 (Calcitonin receptor) | IC50 [2] | Ki [2] | IC50 [3] | IC50 [4] | Ki [4] | IC50 [5] | IC50 [6]

NC(=O)N1c2ccccc2C=Cc2ccccc21 [CARBAMAZEPINE]
Not Active: IC50 (Substance-P receptor) | IC50 [1] | Ki [1] | IC50 (Calcitonin receptor) | IC50 [2] | Ki [2] | IC50 [3] | IC50 [4] | Ki [4] | IC50 [5] | IC50 [6]

CN(Cc1cnc2nc(N)nc(N)c2n1)c1ccc(C(=O)N[C@@H](CCC(=O)O)C(=O)O)cc1 [METHOTREXATE]
Not Active: IC50 (Substance-P receptor) | IC50 [1] | Ki [1] | IC50 (Calcitonin receptor) | IC50 [2] | Ki [2] | IC50 [3] | IC50 [4] | Ki [4] | IC50 [5] | IC50 [6]

C[C@]12CCC(=O)C=C1CC[C@@H]1[C@@H]2[C@@H](O)C[C@@]2(C)[C@H]1CC[C@]2(O)C(=O)CO [HYDROCORTISONE]
Not Active: IC50 (Substance-P receptor) | IC50 [1] | Ki [1] | IC50 (Calcitonin receptor) | IC50 [2] | Ki [2] | IC50 [3] | IC50 [4] | Ki [4] | IC50 [5] | IC50 [6]

CCn1cc(C(=O)O)c(=O)c2cc(F)c(N3CCNCC3)nc21 [ENOXACIN]
Not Active: IC50 (Substance-P receptor) | IC50 [1] | Ki [1] | IC50 (Calcitonin receptor) | IC50 [2] | Ki [2] | IC50 [3] | IC50 [4] | Ki [4] | IC50 [5] | IC50 [6]

C#C[C@]1(O)CC[C@H]2[C@@H]3CCC4=Cc5oncc5C[C@]4(C)[C@H]3CC[C@@]21C [DANAZOL]
Not Active: IC50 (Substance-P receptor) | IC50 [1] | Ki [1] | IC50 (Calcitonin receptor) | IC50 [2] | Ki [2] | IC50 [3] | IC50 [4] | Ki [4] | IC50 [5] | IC50 [6]

CC(=O)O[C@]1(C(C)=O)CC[C@H]2[C@@H]3C=C(C)C4=CC(=O)CC[C@]4(C)[C@H]3CC[C@@]21C [MEGESTROL ACETATE]
Not Active: IC50 (Substance-P receptor) | IC50 [1] | Ki [1] | IC50 (Calcitonin receptor) | IC50 [2] | Ki [2] | IC50 [3] | IC50 [4] | Ki [4] | IC50 [5] | IC50 [6]

C[C@H](C(=O)O)c1cccc(C(=O)c2ccccc2)c1 [DEXKETOPROFEN]
Not Active: IC50 (Substance-P receptor) | IC50 [1] | Ki [1] | IC50 (Calcitonin receptor) | IC50 [2] | Ki [2] | IC50 [3] | IC50 [4] | Ki [4] | IC50 [5] | IC50 [6]

NC[C@@H]1O[C@H](O[C@H]2[C@@H](O)[C@H](O[C@@H]3[C@@H](O)[C@H](N)C[C@H](N)[C@H]3O[C@H]3O[C@H](CN)[C@@H](O)[C@H](O)[C@H]3N)O[C@@H]2CO)[C@H](N)[C@@H](O)[C@@H]1O [FRAMYCETIN]
Not Active: IC50 (Substance-P receptor) | IC50 [1] | Ki [1] | IC50 (Calcitonin receptor) | IC50 [2] | Ki [2] | IC50 [3] | IC50 [4] | Ki [4] | IC50 [5] | IC50 [6]

COc1ccccc1OCC(O)CO (stereo not drawn) [GUAIFENESIN]
Not Active: IC50 (Substance-P receptor) | IC50 [1] | Ki [1] | IC50 (Calcitonin receptor) | IC50 [2] | Ki [2] | IC50 [3] | IC50 [4] | Ki [4] | IC50 [5] | IC50 [6]

[N-]=[N+]=CC(=O)OC[C@H](N)C(=O)O [AZASERINE]
Not Active: IC50 (Substance-P receptor) | IC50 [1] | Ki [1] | IC50 (Calcitonin receptor) | IC50 [2] | Ki [2] | IC50 [3] | IC50 [4] | Ki [4] | IC50 [5] | IC50 [6]

OCCO [ETHYLENE GLYCOL]
Not Active: IC50 (Substance-P receptor) | IC50 [1] | Ki [1] | IC50 (Calcitonin receptor) | IC50 [2] | Ki [2] | IC50 [3] | IC50 [4] | Ki [4] | IC50 [5] | IC50 [6]

CCC[C@@H]1C[C@@H](C(=O)N[C@@H]([C@H]2O[C@H](SC)[C@H](O)[C@@H](O)[C@H]2O)[C@H](C)Cl)N(C)C1 [CLINDAMYCIN]
Not Active: IC50 (Substance-P receptor) | IC50 [1] | Ki [1] | IC50 (Calcitonin receptor) | IC50 [2] | Ki [2] | IC50 [3] | IC50 [4] | Ki [4] | IC50 [5] | IC50 [6]

C#C[C@]1(O)CC[C@H]2[C@@H]3CCc4cc(O)ccc4[C@H]3CC[C@@]21C [ETHINYL ESTRADIOL]
Not Active: IC50 (Substance-P receptor) | IC50 [1] | Ki [1] | IC50 (Calcitonin receptor) | IC50 [2] | Ki [2] | IC50 [3] | IC50 [4] | Ki [4] | IC50 [5] | IC50 [6]

CS(=O)(=O)OCCCCOS(C)(=O)=O [BUSULFAN]
Not Active: IC50 (Substance-P receptor) | IC50 [1] | Ki [1] | IC50 (Calcitonin receptor) | IC50 [2] | Ki [2] | IC50 [3] | IC50 [4] | Ki [4] | IC50 [5] | IC50 [6]

CC[C@H]1OC(=O)[C@H](C)[C@@H](O[C@H]2C[C@@](C)(OC)[C@@H](O)[C@H](C)O2)[C@H](C)[C@@H](O[C@@H]2O[C@H](C)C[C@H](N(C)C)[C@H]2O)[C@](C)(O)C[C@@H](C)CN(C)[C@H](C)[C@@H](O)[C@]1(C)O [AZITHROMYCIN]
Not Active: IC50 (Substance-P receptor) | IC50 [1] | Ki [1] | IC50 (Calcitonin receptor) | IC50 [2] | Ki [2] | IC50 [3] | IC50 [4] | Ki [4] | IC50 [5] | IC50 [6]

COC(=O)c1ccccc1O [METHYL SALICYLATE]
Not Active: IC50 (Substance-P receptor) | IC50 [1] | Ki [1] | IC50 (Calcitonin receptor) | IC50 [2] | Ki [2] | IC50 [3] | IC50 [4] | Ki [4] | IC50 [5] | IC50 [6]

O=C(O)c1cccnc1 [NIACIN]
Not Active: IC50 (Substance-P receptor) | IC50 [1] | Ki [1] | IC50 (Calcitonin receptor) | IC50 [2] | Ki [2] | IC50 [3] | IC50 [4] | Ki [4] | IC50 [5] | IC50 [6]
